From patent US20170172929A1, “PHARMACEUTICAL COMPOSITION CONTAINING PREGABALIN WITH IMPROVED STABILITY AND METHOD FOR PREPARING SAME” (Yungjin Pharm. Co., Ltd., priority 2014, published 2017)
Read-outs that look alike come from different tables or passages of the source.

Legend:
[1] = severe conditions (60°C), airtight glass vial, excipient mixed 1:1
Procedure: 1 g of pregabalin and each 1 g of the excipients given in Table 14 were mixed at room temperature, and the mixture in the form of powder was air-tightened in a glass vial, and this vial was stored under severe conditions (60° C.) for 2 weeks, and then a percentage (%) of lactam related compounds (PRG-Lactam) relative to the main peak was calculated by HPLC. The analysis wavelength was 210 nm, a mixture (0.04 M ammonium phosphate ((NH4)2HPO4) buffer solution:acetonitrile:methanol=84:5:11) containing 5 mM sodium 1-octanesulfonate used as a mobile phase A, and acetonitrile was used as a mobile phase B. The mobile phase A was maintained at 100% for initial 6 minutes, and the m phase A was maintained from 100% to 70% and the mobile phase B was maintained from 0% to 30% for 6˜45 minutes, and then the mobile phase A was maintained at 70% and the mobile phase B was maintained at 0% for 45˜50 minutes. Post time was 10 minutes. A flow rate was adjusted (0.9 min/mL) so that a retention time of pregabalin was about 8 minutes. A column was a stainless steel column having an internal diameter of about 4.6 mm and a length of about 250 mm, packed with 5 μm-octadecylsilyl silica gel for liquid chromatography.

[2] = cited from earlier work

## CC(C)C[C@H](CN)CC(=O)O [Pregabalin, (S)-3-(aminomethyl)-5-methylhexanoic acid]
[1]; 0 weeks
  % of Peak area of PRG-Lactam relative to peak area of pregabalin: 0.074%
[1]; 1 week
  % of Peak area of PRG-Lactam relative to peak area of pregabalin: 0.196%
[1]; 2 weeks
  % of Peak area of PRG-Lactam relative to peak area of pregabalin: 0.329%
[2]; after administration
  Time to steady-state blood levels: 24˜48 hours
[2]; in vivo
  Average absorption time: 6 h
[2]; normal person
  Half-life: about 6 hours
[2]; oral immediate release
  Time to reach peak blood levels: ≤ 1.5 h
